Read-outs that look alike come from different tables or passages of the source. One block for each molecule: values may come before it.
Key:
GPX1 [1] = target: T1, GPX1 (Homo sapiens, UniProt P07203); assay: GR-coupled GPX1 activity assay (NADPH fluorescence, CHP substrate); type: biochemical
T1 construct: made in house; host or cells: E. coli
T1 sequence (P07203 1-203): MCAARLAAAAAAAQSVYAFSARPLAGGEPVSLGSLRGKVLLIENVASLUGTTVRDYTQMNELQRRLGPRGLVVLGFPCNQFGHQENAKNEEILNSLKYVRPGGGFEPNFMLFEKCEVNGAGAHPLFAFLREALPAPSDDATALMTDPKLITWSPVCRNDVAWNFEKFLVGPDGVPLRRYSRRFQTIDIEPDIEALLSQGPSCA
Procedure: (§1) The compound plates were prepared as described previously. Purified recombinant human GPX1, GPX2, GPX4, GR, and TXNRD1 were produced and purified as previously reported [[48], [49], [50]]. As production of GPX2 was not optimized at the onset of screening, only GPX1 and GPX4 underwent library screening, and GPX2 was used as a follow-up.
(§2) Follow-up and orthogonal assays were run in quadruplicate unless otherwise stated. Assay schemes are illustrated in Fig. 1.
(§3) To measure GPX activity, assays were performed in 1536-well format in black medium-binding solid-bottom plates (Greiner). These assay conditions were optimized for high-throughput screening from an assay first described by Paglia and Valentine. GPX activity is measured indirectly by coupling the reaction with GR whereby GPX reduces hydroperoxide by oxidizing two GSH to GSSG and the oxidized glutathione is recycled to its reduced state by GR and NADPH (Fig. 1B). The rate of consumption of NADPH is directly proportional to the activity of GPX and can be measured by the decrease in fluorescence at 340 nm/450 nm.
(§4) First, 3 μL of enzyme in TES assay buffer (50 mM Tris-HCl, 2 mM EDTA (pH 7.5), 150 mM NaCl with enzyme [10 nM GPX1, 200 nM GPX4 ] and BSA [0.01%]) was added to columns 3–48 of 1536-well plates using a BioRAPTR Flying Reagent Dispenser (Let's Go Robotics (LGR), Carlsbad, CA). A no-enzyme control (0.01% BSA in TES assay buffer) was added to columns 1–2. Compounds (25 nL, library and DMSO controls) were added to each well with a pin tool (Kalypsys), and the plates were incubated for 30 min at room temperature before 1 μL of master mix (100 nM GR, 1 mM GSH, 0.5 mM NADPH in TES buffer) was added. 1 μL of cumene hydroperoxide (CHP) ([0.5 mM] in 50% EtOH) was then added within 5 min to initiate the reaction. Fluorescence at 340/450 nm was measured using a ViewLux multimodal detector (PerkinElmer, Waltham, MA) at initial t = 0 and endpoint t = 15 min (GPX1) or t = 20 min (GPX4).
(§5) Follow-up confirmation assays were also run in 96-well format using medium binding clear 96-well SpectraPlate microplates (PerkinElmer) and NADPH absorbance at 340 nm was measured every 30 s for 30 min using an Infinite® M Nano (Tecan).
(§6) Percent activity was determined by first calculating delta RFU (decrease in fluorescence between t = 0 and t = 20/30 min in primary GPX, GR counter-screen, and TXNRD1 assays, or increase in fluorescence between t = 0 and t = 20 min in the Monobromobimane GPX endpoint assay), and normalizing enzyme activity using median delta RFU values for DMSO-treated enzyme control, and DMSO-treated no-enzyme controls.
(§7) Compound inhibitory activity in the qHTS assays was determined by plotting dose-response data for each sample and fitting with a four-parameter logistic fit to assess IC50 values, efficacy (maximal response), and AUC (area under the curve), as previously described. Hits were classified by the quality of the concentration-response curves (CRC). Curve classes −1.1 and −1.2 being the highest-confidence actives with complete CRCs and classes −2.1 and −2.2 being lower-confidence actives with incomplete CRCs.

GPX1 [2] = target: T1, GPX1; assay: nanoDSF thermal stabilization, GPX1; type: binding; conditions: first or only inflection point
Procedure: (§8) Thermal stabilization of enzyme ± DMSO or ± compound was carried out in a Prometheus NT.48 instrument (NanoTemper Technologies) with an excitation wavelength of 280 nm. Intrinsic fluorescence at 330 nm and 350 nm was monitored while heating. Capillaries were filled with ∼10 μL of a solution of GPX1/4 (1 mg/mL), ± small molecule (100 μM) or DMSO, in TES buffer and placed into the instrument. The capillaries were subjected to a temperature range from 30 to 90 °C at a ramp rate of 2 °C/min. The ratio of the recorded emission intensities (350nm/330 nm) were plotted as a function of temperature. This ratio and first derivatives were calculated using the NanoTemper software and were plotted using GraphPad Prism.

GPX4 [3] = target: T2, GPX4 (Homo sapiens, UniProt P36969); assay: nanoDSF thermal stabilization, GPX4; type: binding; conditions: first or only inflection point; for GSH Binding (ΔTm) GPx4; shift in nanoDSF melting temperature: 100 μM small molecule vs DMSO control; for Tm GPX4 (nanoDSF): 100 μM, DMSO control Tm 48.2°C
T2 construct: made in house; host or cells: E. coli
T2 sequence (P36969 1-170 isoform P36969-2): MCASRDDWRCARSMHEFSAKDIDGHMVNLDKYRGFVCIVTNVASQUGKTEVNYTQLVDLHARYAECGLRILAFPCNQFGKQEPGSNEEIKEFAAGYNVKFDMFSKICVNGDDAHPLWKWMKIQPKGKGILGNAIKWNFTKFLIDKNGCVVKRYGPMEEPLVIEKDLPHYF
Procedure: as §8

GPX4 [4] = target: T2, GPX4; assay: GR-coupled GPX4 activity assay (NADPH fluorescence, CHP substrate); type: biochemical
Procedure: as §1, §2, §3, §4, §5, §6, §7

human GPX2 = target: T3, human GPX2 (Homo sapiens, UniProt P18283); assay: GPX2 activity assay (follow-up isoform specificity); type: biochemical; conditions: IC50 of resulting CRC, Table 2
T3 construct: made in house
T3 sequence (P18283 1-190): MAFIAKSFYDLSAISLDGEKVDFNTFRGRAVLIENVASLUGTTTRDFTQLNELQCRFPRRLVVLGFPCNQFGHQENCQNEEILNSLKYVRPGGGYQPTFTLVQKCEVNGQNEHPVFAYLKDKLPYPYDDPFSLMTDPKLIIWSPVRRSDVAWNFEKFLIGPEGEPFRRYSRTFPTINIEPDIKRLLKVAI
Procedure: as §1, §2
Previous work has shown similarities in the substrate specificities of GPX1 and GPX2, and a more unique substrate profile of GPX4 [8].
The GPX2 isoform of human selenoprotein GPXs is found in epithelial cells and has similar substrate specificity with GPX1, but not as much with GPX4 [8]. Additionally, GPX1 and GPX2 both form homotetramers and share similarities in structural homology, although GPX2 has a much slower turnover rate.

[5] = assay validation, Fig. 2E, read-out: IC50, prior art GPX1 inhibitor activities in optimized assay
[6] = IC50 of resulting CRC, Table 2, read-out: IC50 GPx4
[7] = IC50 of resulting CRC, Table 2, read-out: IC50 GPx1

GSH Binding (ΔTm) GPx1; shift in nanoDSF melting temperature (GPX1 [2]; 100 μM small molecule vs DMSO control): +3.6 °C | Tm GPX1 (nanoDSF) (GPX1 [2]; 100 μM, DMSO control Tm 42.5°C): 46.1 °C | GSH Binding (ΔTm) GPx4; shift in nanoDSF melting temperature (GPX4 [3]): +4.7 °C | Tm GPX4 (nanoDSF) (GPX4 [3]): 52.9 °C
Compound: N[C@@H](CCC(=O)N[C@@H](CS)C(=O)NCC(=O)O)C(=O)O [Glutathione]

IC50 (GPX4 [4]; [6]): 9.9 µM
Compound: Cc1cnc(C(=O)N[C@H]2CCCCC/C=C\[C@@H]3C[C@@]3(C(=O)NS(=O)(=O)C3CC3)NC(=O)[C@@H]3C[C@@H](Oc4nc5ccccc5c5ccccc45)CN3C2=O)cn1 [Paritaprevir (ABT-450), Paritaprevir]

IC50 (GPX4 [4]; [6]): 3.4 µM | GSH Binding (ΔTm) GPx4; shift in nanoDSF melting temperature (GPX4 [3]): +4.1 °C | Tm GPX4 (nanoDSF) (GPX4 [3]): 52.3 °C
Compound: C=C[C@@H]1C[C@]1(NC(=O)[C@@H]1C[C@@H]2CN1C(=O)[C@H](C(C)(C)C)NC(=O)O[C@@H]1C[C@H]1CCCCCc1nc3ccc(OC)cc3nc1O2)C(=O)NS(=O)(=O)C1CC1 [Grazoprevir (MK-5172), Grazoprevir]

IC50 (GPX4 [4]; [6]): 6 µM | GSH Binding (ΔTm) GPx4; shift in nanoDSF melting temperature (GPX4 [3]): +5.0 °C | Tm GPX4 (nanoDSF) (GPX4 [3]): 53.2 °C
Compound: O=C(Nc1cccc2c(=O)cc(-c3nnn[nH]3)oc12)c1ccc(OCCCCc2ccccc2)cc1 [Pranlukast hydrate]

More lines, now with the values behind:

Compound: OC[C@H]1O[C@H]([S-])[C@H](O)[C@@H](O)[C@@H]1O.[Au+] [aurothioglucose]
GPX1 activity remaining at the top dose, primary library screen (GPX1 [1]; top dose, qHTS (not shown)): 49%

Compound: O=C(O)CC(S)C(=O)O (centres unmarked) [MSA, Mercaptosuccinic acid]
IC50 (GPX1 [1]; [5]): 1.44 µM | IC50 (GPX4 [4]; assay validation, Fig. 3E, read-out: IC50, prior art GPX4 inhibitor activities in optimized assay): 57.7 µM

Compound: Cc1c(N(C)CS(=O)(=O)O)c(=O)n(-c2ccccc2)n1C [Metamizole (dipyrone)]
IC50 (GPX1 [1]; [7]): 8.1 µM | IC50 (GPX4 [4]; [6]): 8.8 µM | IC50 (human GPX2): 3.3 µM

Compound: [Cl][Hg][Cl] [mercuric chloride, mercuric(II) chloride]
IC50 (GPX1 [1]; [5]): 5.83 µM

Compound: O=C(NNCS(=O)(=O)O)c1ccncc1 [Isoniazid sodium methanesulfonate]
IC50 (GPX1 [1]; [7]): 5.2 µM | IC50 (GPX4 [4]; [6]): 4.6 µM | IC50 (human GPX2): 1.7 µM

Compound: O=C(O)Cc1cccc(OCCCN(Cc2cccc(C(F)(F)F)c2Cl)CC(c2ccccc2)c2ccccc2)c1 [GSK-3965]
IC50 (GPX4 [4]; [6]): 10.7 µM

Compound: Cc1c(CCOc2ccc(C(=O)O)cc2)c2cc(Cl)ccc2n1C(c1ccccc1)c1ccccc1 [CDIBA]
IC50 (GPX4 [4]; [6]): 14.8 µM

From article PMC10220285, “Development of an assay pipeline for the discovery of novel small molecule inhibitors of human glutathione peroxidases GPX1 and GPX4” (Redox Biology, 2023)
